Data on two compounds can be found in patent US12509734B2, “Systems and methods to assess microbiomes and treatments thereof” (priority 2013, dated 2025).

The test system of experiment [1] is bacterial vaginosis (BV). The experiment can be described thus: Clinical assessment of BV patients after therapy (Amsel criteria, Nugent score, recurrence). In kind it is in vivo, human. From the text: Patients. Five African American participants were followed at the Vaginitis Clinic at Wayne State University and had been treated for recurrent episodes symptomatic bouts of BV. Patients were enrolled after protocol explanation and written informed consent was obtained. The study was endorsed by the Human Investigational Review Board of Wayne State University. At the time of enrollment, patients were diagnosed with florid symptomatic acute BV, characterized by the presence of at least 3 of the 4 Amsel criteria (homogeneous vaginal discharge, pH elevated above 4.5, clue cells>20%, positive whiff test) and Nugent scores of at least 8.
At this immediate PT visit, patients were given Catch-All Sample Collection Swabs (Epicentre Biotechnologies, Madison, WI) and 15 mL conical tubes for vaginal specimen self-collection. […] Samples from a previously characterized group of recurrent BV patients, sampled before and after treatment, were also evaluated by Lb-qPCR. Reichman et al., Sexually Transmitted Diseases 36: 732-734, 2009.

Experiment [2] has as its system vaginal microbiota (PB-primer target groups). Description: PB-qPCR microbial profiles of vaginal swabs of recurrent BV patients (Example 2). The format is in vivo, human. Here is the method:
Sample processing, DNA extraction, and qPCR. Microbial gDNA was purified from swabs in 1-2 ml saline or lysis solution by a high SDS/alkaline lysis—phenol extraction protocol as described previously in Lambert and resuspended in 200 μL TE (10 mM Tris, pH 8, 1 mM EDTA). The lysed bacterial gDNA is stable for over one month at room temperature in lysis solution buffer (data not shown) and this buffer prevents changes in titer due to possible stability issues with different strains of bacteria in saline. An aliquot of purified DNA was assayed by qPCR with 18 universal and phylogenetic branch-inclusive (PB) primers and PCR conditions as described previously in Lambert. Additional primers, targeting the Enterococcus genus and its cytolysin gene CyILL, are provided in SEQ ID NOs: 92 and 95 (Enterococcus), and 93 and 96 (cytolysin gene). Each PB-primer targets a branch of the phylogenetic tree, from whole phyla to family or genus, and is far more inclusive than species-specific primers. Relative LB composition of the vaginal microbiome was determined by dividing the Lactobacillaceae titer by the sum of all PB-primers and by using the disclosed LB-blocker approach. Briefly, the LB-blocker approach uses the difference between the quantitative cycles (Cq) of two parallel qPCR reactions with universal primers targeting the 16S rRNA gene, when one of the reactions is in the presence of LB spp.-specific blocking oligomers (LB-blockers) that have been chemically modified to prevent extension and that partially overlap the universal primer binding site, effectively rendering the LB DNA “invisible” to the universal PCR, even when LB gDNA is present at great excess compared to non-LB gDNA, as is common in healthy and PT samples. PB-primers amplicons were selectively sequenced to confirm they were correctly targeted and to identify the dominant species. These were “cleaned” enzymatically as described in Lambert, and Sanger sequenced at Functional Biosciences (Madison, WI). Sequences were uploaded to Ribosomal Database Project II using its Pipeline function; species were identified based on phylogenetic trees constructed in Molecular Evolutionary Genetics Analysis (MEGA5) software.
Calculations. Cq values from qPCR reactions were converted to molecules per reaction by comparing sample Cq values to a standard curve from the same run of Cq values derived from dilutions of an amplicon of known target of known concentration. Molecules per reaction were converted to cells per swab, assuming an average of 5 ribosomal genes per cell and proportioned to the ratio of the volume of the sample used in the DNA prep and the amount of sample used in the qPCR reaction. Delta Cq (ΔCq) values of LB-blocked reaction pairs were calculated as Cq (blocked sample)−Cq (unblocked sample). Differences between patient groups were compared using the t test in (GraphPad software).

For experiment [3], the system named is bacterial vaginosis (BV). Conditions: 121 women with BV successfully treated; cited from earlier work.
Experiment [4] concerns relative LB content of the vaginal microbiome. Description: Lb-qPCR / LbRC: delta Cq of LB-blocked versus unblocked universal qPCR of vaginal samples. In kind it is in vivo, human. The note with it: separate group of recurrent BV patients, FIG. 11. Here is the method:
Sample processing, DNA extraction, and qPCR. Microbial gDNA was purified from swabs in 1-2 ml saline or lysis solution by a high SDS/alkaline lysis—phenol extraction protocol as described previously in Lambert and resuspended in 200 μL TE (10 mM Tris, pH 8, 1 mM EDTA). The lysed bacterial gDNA is stable for over one month at room temperature in lysis solution buffer (data not shown) and this buffer prevents changes in titer due to possible stability issues with different strains of bacteria in saline. An aliquot of purified DNA was assayed by qPCR with 18 universal and phylogenetic branch-inclusive (PB) primers and PCR conditions as described previously in Lambert. Additional primers, targeting the Enterococcus genus and its cytolysin gene CyILL, are provided in SEQ ID NOs: 92 and 95 (Enterococcus), and 93 and 96 (cytolysin gene). Each PB-primer targets a branch of the phylogenetic tree, from whole phyla to family or genus, and is far more inclusive than species-specific primers. Relative LB composition of the vaginal microbiome was determined by dividing the Lactobacillaceae titer by the sum of all PB-primers and by using the disclosed LB-blocker approach. […]
Calculations. […] Delta Cq (ΔCq) values of LB-blocked reaction pairs were calculated as Cq (blocked sample)−Cq (unblocked sample). […]
A general note: Real-time PCR tracks product formation cycle by cycle.

Where [5] appears, read: P2, 500 mg suppositories, 2 per day for 7 days.
The mark [6] stands for this setting: P5, 7 daily 500 mg vaginal suppositories.
Setting [7] is: separate group of recurrent BV patients.

Turning to `CCC[C@@H]1C[C@@H](C(=O)N[C@@H]([C@H]2O[C@H](SC)[C@H](O)[C@@H](O)[C@H]2O)[C@H](C)Cl)N(C)C1` [clindamycin], the “Nugent score after treatment” value in the experiment with bacterial vaginosis (BV) [1] (P3, Nugent 10 before) is listed as 0. In addition, in experiment [2] (P3-post), the “Actinobacteridae (G. vaginalis) after treatment, fold lower than P1 or P2” value was 10-100 fold; the “Mobiluncus share after treatment” value is reported as 0.4%; the “Share of all other targets after treatment” value is on record as “below 0.01%”.

With `Cc1ncc([N+](=O)[O-])n1CCO` [metronidazole], in the experiment with bacterial vaginosis (BV) [1] (P1, daily suppositories 750 mg), the “Clinical status 10 days later” value was “full remission” and the “Day of recurrence of symptomatic BV” value was 94 days. Besides, in the experiment with bacterial vaginosis (BV) [1] (P1, high dose vaginal), the “Amsel status after treatment” value is reported as “Amsel negative”. In addition, the “Nugent score after treatment” value with bacterial vaginosis (BV) [1] (P1, high dose vaginal, after first and second BV episodes) is on record as 0. In the experiment with bacterial vaginosis (BV) [1] (P1, vaginal 500-750 mg twice weekly), the “Florid episodes of BV in the two previous years in spite of prophylactic therapy” value was found to be 4. Moreover, in the experiment with bacterial vaginosis (BV) [1] (P2-post1, oral), the “Amsel status after treatment” value was “Amsel negative” and the “Nugent score after treatment” value is on record as 0. In the experiment on bacterial vaginosis (BV) [1] (setting [5]), the “Day symptoms were reported after second treatment” value came out at 152 days and the “Response to second treatment” value is recorded as “recovered well”. For the same compound, in the experiment on bacterial vaginosis (BV) [1] (P2, 2x500 mg suppositories daily for 7 days), the “Time to recurrence after second treatment (self-reported)” value is on record as “approximately 117 days PT”. Also, in the experiment with bacterial vaginosis (BV) [1] (P2, oral 500 mg bid for 7 days), the “Clinical status one week later” value is given as “asymptomatic” and the “Time of symptomatic recurrence after enrollment” value is reported as 35 days. For the same compound, in the experiment with bacterial vaginosis (BV) [1] (setting [6]), the “Clinical status 21 days later” value is recorded as “asymptomatic in clinical remission” and the “Nugent score 21 days later” value is 4. Further, the “Outcome at return within three weeks by Amsel criteria” value in the experiment with bacterial vaginosis (BV) [1] (five recurrent BV patients, Nugent scores of 0 except Patient 5) is recorded as “clinical cure”. Moreover, in the experiment on bacterial vaginosis (BV) [1] (setting [7]), the “Nugent average after treatment, Post A group” value is on record as 2.2±4.0 and the “Nugent average after treatment, Post B group” value is recorded as 0.8±1.2. Also, in the experiment with bacterial vaginosis (BV) [3], the “Women who recurred within one year” value is given as 58% and the “Women who returned to abnormal vaginal profiles” value was 69%. The “Actinobacteridae (G. vaginalis) share after treatment” value in experiment [2] (P1-post1) came out at 2%. Moreover, the “Lactobacillaceae share of post-treatment samples” value in experiment [2] (P1-post1 and -post2, high dose vaginal) is recorded as greater than 97%. In experiment [2] (P1-post2 versus P1-post1), the “Further fold reduction of G. vaginalis” value is recorded as roughly 100 fold. In experiment [2] (P2-post1, oral), the “Actinobacteridae (G. vaginalis) share after treatment” value is less than 0.5% and the “Share of 6-8 other targets after treatment” value is recorded as “under 0.1%”. Moreover, in experiment [4], the “delta Cq score after treatment, Post A group” value was determined as 4.1±2.2 and the “delta Cq score after treatment, Post B group” value was found to be 17±6.
